Patent US11214803B2, “Modulators of YAP1 expression” (Ionis Pharmaceuticals, Inc., priority 2019, dated 2022)

Key:
Yap1 mRNA [1] = test: Yap1 mRNA in NCI H292 cells, RNA analysis (Example 32); type: cell-based, human; conditions: free uptake, approximately 48 hours
Method: Modified oligonucleotides described in the studies above were tested at various doses in mucoepidermoid pulmonary carcinoma cell line […]. A control oligonucleotide 792169 was also tested.
(§1) Cultured NCI H292 cells at a density of 5000 cells per well were treated using free uptake with modified oligonucleotides diluted to concentrations described in the tables below. After approximately 48 hours, Yap1 mRNA levels were measured as previously described using the Human Yap1 primer-probe set RTS4814. Yap1 mRNA levels were normalized to actin-beta content, as measured by primer probe set RTS5002. Results are presented in the tables below as percent control of the amount of Yap1 mRNA relative to untreated control cells (% UTC).

Yap1 mRNA [2] = test: Yap1 mRNA in SNU-1076 cells, RNA analysis (Example 45); type: cell-based, human; conditions: free uptake, approximately 48 hours
Method: (§2) Modified oligonucleotides described in the studies above were tested at various doses in upper aerodigestive tract/laryngeal squamous cell carcinoma line SNU-1076. A control oligonucleotide 792169, described herein above, was also tested.
as §1, with “SNU-1076” for “NCI H292”

SNU-1076 cells = test: Cell proliferation assay in SNU-1076 cells, CellTiter-Glo (Example 45); type: cell-based, human; conditions: free uptake, approximately 144 hours
Method: as §2
(§3) Cultured SNU-1076 cells at a density of 1000 cells/well were treated using free uptake with modified oligonucleotides diluted to concentrations described in the tables below. After approximately 144 hours, cell proliferation was measured using the luminescent cell viability CellTiter-Glo® 2.0 Assay (Promega). Results are presented in the tables below as percent control of the amount of luminescence in samples treated with modified oligonucleotides relative to untreated control cells (% UTC).

SCC-15 cells = test: Cell proliferation assay in SCC-15 cells, CellTiter-Glo (Example 41); type: cell-based, human; conditions: free uptake, approximately 144 hours
Method: Modified oligonucleotides described in the studies above were tested at various doses in tongue squamous cell carcinoma cell line SCC-15. A control oligonucleotide 792169, described herein above, was also tested.
as §3, with “SCC-15” for “SNU-1076”

CAL33 xenograft tumor = test: Tumor volume and tumor weight in CAL33 xenograft tumor model (Example 29); type: in vivo, human; conditions: 50 mg/kg twice weekly for two weeks; for Average Tumor weight: CAL33 xenograft mice, end of study; for Average Tumor Volume: CAL33 xenografts
Method: A xenograft tumor model was used to evaluate activity of modified oligonucleotides targeted to human Yap1. One million CAL33 cells in 30% matrigel were implanted subcutaneously into the flanks of female CrTac:NCr-Foxnlnu (Taconic) mice. When tumors reached an average volume of 100 mm^3, approximately two weeks post-implantation, groups of eight mice were administered at 50 mg/kg twice weekly with modified oligonucleotides for two weeks. ION 792169 was administered as a control.
Tumor volume was measured at the indicated days in the table below. Tumor weight was determined at end of study. Mice were sacrificed when tumors from PBS-treated mice reached 2,000 mm3.

Yap1 mRNA [3] = test: Yap1 mRNA in CAL27 cells, RNA analysis (Example 37); type: cell-based, human; conditions: free uptake, approximately 48 hours
Method: Modified oligonucleotides described in the studies above were tested at various doses in tongue squamous cell carcinoma line CAL27. A control oligonucleotide 792169, described herein above, was also tested.
as §1, with “CAL27” for “NCI H292”

CAL33 cells = test: Cell proliferation assay in CAL33 cells, CellTiter-Glo (Example 36); type: cell-based, human; conditions: free uptake, approximately 144 hours
Method: Modified oligonucleotides described in the studies above were tested at various doses in tongue squamous cell carcinoma line CAL33. A control oligonucleotide 792169, described herein above, was also tested.
as §3, with “CAL33” for “SNU-1076”

Yap1 mRNA [4] = test: Yap1 mRNA in SNU-899 cells, RNA analysis (Example 43); type: cell-based, human; conditions: free uptake, approximately 48 hours
Method: Modified oligonucleotides described in the studies above were tested at various doses in laryngeal squamous cell carcinoma cell line SNU-899. A control oligonucleotide 792169, described herein above, was also tested.
as §1, with “SNU-899” for “NCI H292”

Substance | human Yap1 mRNA expression (Yap1 mRNA [1]; 0.04 μM) [% UTC] | human Yap1 mRNA expression (Yap1 mRNA [1]; 0.2 μM) [% UTC] | human Yap1 mRNA expression (Yap1 mRNA [1]; 1 μM) [% UTC] | human Yap1 mRNA expression (Yap1 mRNA [1]; 5 μM) [% UTC] | human Yap1 mRNA expression (Yap1 mRNA [2]; 0.04 μM) [% UTC] | human Yap1 mRNA expression (Yap1 mRNA [2]; 0.2 μM) [% UTC] | human Yap1 mRNA expression (Yap1 mRNA [2]; 1 μM) [% UTC] | human Yap1 mRNA expression (Yap1 mRNA [2]; 5 μM) [% UTC] | Antiproliferative effect (cell proliferation, luminescence) (SNU-1076 cells; 0.04 μM) [% UTC] | Antiproliferative effect (cell proliferation, luminescence) (SNU-1076 cells; 0.2 μM) [% UTC] | Antiproliferative effect (cell proliferation, luminescence) (SNU-1076 cells; 1 μM) [% UTC] | Antiproliferative effect (cell proliferation, luminescence) (SNU-1076 cells; 5 μM) [% UTC] | Antiproliferative effect (cell proliferation, luminescence) (SCC-15 cells; 0.04 μM) [% UTC] | Antiproliferative effect (cell proliferation, luminescence) (SCC-15 cells; 0.2 μM) [% UTC] | Antiproliferative effect (cell proliferation, luminescence) (SCC-15 cells; 1 μM) [% UTC] | Antiproliferative effect (cell proliferation, luminescence) (SCC-15 cells; 5 μM) [% UTC] | Average Tumor weight (CAL33 xenograft tumor) [g] | Average Tumor Volume (CAL33 xenograft tumor; day 10 post-implantation) [mm^3] | Average Tumor Volume (CAL33 xenograft tumor; day 13 post-implantation) [mm^3] | Average Tumor Volume (CAL33 xenograft tumor; day 17 post-implantation) [mm^3] | also measured
1198440 (AAGTGTATGTCAGAAG; cEt, 2'-MOE, 5-methylcytosine, phosphorothioate modifications, further chemistry not given here) [compound 1198440] | 89 | 53 | 18 | 5 | 83 | 43 | 11 | 3 | 99 | 87 | 81 | 81 | 72 | 54 | 42 | 32 | 0.36 | 115 | 279 | 376 | Average Tumor Volume (CAL33 xenograft tumor; day 21 post-implantation): 574 mm^3; Average Tumor Volume (CAL33 xenograft tumor; day 24 post-implantation): 651 mm^3; Average Tumor Volume (CAL33 xenograft tumor; day 27 post-implantation): 818 mm^3; Average Tumor Volume (CAL33 xenograft tumor; day 31 post-implantation): 888 mm^3; Average Tumor Volume (CAL33 xenograft tumor; day 34 post-implantation): 857 mm^3; Average Tumor Volume (CAL33 xenograft tumor; day 38 post-implantation): 770 mm^3; Average Tumor Volume (CAL33 xenograft tumor; day 40 post-implantation): 746 mm^3; Average Tumor Volume (CAL33 xenograft tumor; day 44 post-implantation): 834 mm^3; human Yap1 mRNA expression (Yap1 mRNA [3]; 0.08 μM): 23 % UTC; human Yap1 mRNA expression (Yap1 mRNA [3]; 0.4 μM): 6 % UTC; human Yap1 mRNA expression (Yap1 mRNA [3]; 2 μM): 4 % UTC; human Yap1 mRNA expression (Yap1 mRNA [3]; 10 μM): 4 % UTC; Antiproliferative effect (cell proliferation, luminescence) (CAL33 cells; 0.04 μM): 84 % UTC; Antiproliferative effect (cell proliferation, luminescence) (CAL33 cells; 0.2 μM): 67 % UTC; Antiproliferative effect (cell proliferation, luminescence) (CAL33 cells; 1 μM): 58 % UTC; Antiproliferative effect (cell proliferation, luminescence) (CAL33 cells; 5 μM): 44 % UTC; human Yap1 mRNA expression (Yap1 mRNA [4]; 0.04 μM): 35 % UTC; human Yap1 mRNA expression (Yap1 mRNA [4]; 0.2 μM): 12 % UTC; human Yap1 mRNA expression (Yap1 mRNA [4]; 1 μM): 3 % UTC; human Yap1 mRNA expression (Yap1 mRNA [4]; 5 μM): 2 % UTC
CGCCGATAAGGTACAC (cEt gapmer, phosphorothioate backbone, further chemistry not given here) [ION 792169, reference compound] | 98 | 112 | 111 | 106 | 89 | 98 | 102 | 107 | 97 | 104 | 106 | 108 | 93 | 92 | 89 | 71 | 0.85 | 123 | 262 | 367 | Average Tumor Volume (CAL33 xenograft tumor; day 21 post-implantation): 531 mm^3; Average Tumor Volume (CAL33 xenograft tumor; day 24 post-implantation): 774 mm^3; Average Tumor Volume (CAL33 xenograft tumor; day 27 post-implantation): 805 mm^3; Average Tumor Volume (CAL33 xenograft tumor; day 31 post-implantation): 962 mm^3; Average Tumor Volume (CAL33 xenograft tumor; day 34 post-implantation): 1057 mm^3; Average Tumor Volume (CAL33 xenograft tumor; day 38 post-implantation): 1171 mm^3; Average Tumor Volume (CAL33 xenograft tumor; day 40 post-implantation): 1160 mm^3; Average Tumor Volume (CAL33 xenograft tumor; day 44 post-implantation): 1069 mm^3; human Yap1 mRNA expression (Yap1 mRNA [3]; 0.08 μM): 95 % UTC; human Yap1 mRNA expression (Yap1 mRNA [3]; 0.4 μM): 90 % UTC; human Yap1 mRNA expression (Yap1 mRNA [3]; 2 μM): 97 % UTC; human Yap1 mRNA expression (Yap1 mRNA [3]; 10 μM): 88 % UTC; Antiproliferative effect (cell proliferation, luminescence) (CAL33 cells; 0.04 μM): 92 % UTC; Antiproliferative effect (cell proliferation, luminescence) (CAL33 cells; 0.2 μM): 93 % UTC; Antiproliferative effect (cell proliferation, luminescence) (CAL33 cells; 1 μM): 81 % UTC; Antiproliferative effect (cell proliferation, luminescence) (CAL33 cells; 5 μM): 67 % UTC; human Yap1 mRNA expression (Yap1 mRNA [4]; 0.04 μM): 106 % UTC; human Yap1 mRNA expression (Yap1 mRNA [4]; 0.2 μM): 106 % UTC; human Yap1 mRNA expression (Yap1 mRNA [4]; 1 μM): 111 % UTC; human Yap1 mRNA expression (Yap1 mRNA [4]; 5 μM): 102 % UTC
